Consider 36 compounds from a melting point compilation (Tetko et al.; mined from patent text by program, amines drawn as free bases though some values may be those of a salt).

Broadly, the melting point is the temperature of the solid-liquid transition. `NC1CCOC1c1ncnc2nc[nH]c12` (stereo unspecified) gave a melting point of 128 to 130 °C.
The figure for `CSc1ccc(NC#N)c(-c2ccccc2)c1` is 85 °C; for `CC(=O)Nc1cnn2cnc3ccccc3c12` it is 256 to 258 °C.
The figure for `NC(=O)c1ccc(F)c(-c2cccc3cc(Cc4cccc(C(F)(F)F)c4)sc23)c1` is 139 to 140 °C; for `c1ccc(CC2CCc3ccccc3N2)cc1` (stereo unspecified) it is 187 to 190 °C; for `Cc1cn(C)cc(-c2cccc(C(F)(F)F)c2)c1=O` it is 130 to 131 °C.
The figure for `CCSC1OC(CO)C(OC2OC(CO)C(O)C(O)C2O)C(O)C1O` (stereo unspecified) is 191 to 192 °C.
Turning to `CCCC1=C(C(=O)OCC)C(c2ccccc2[N+](=O)[O-])c2c[nH]nc2N1` (stereo unspecified), the melting point stood at 218 °C.
To `O=C(c1ccc(CNc2ncnc3ccccc23)cc1)N1CCN(c2ncc(Cc3ccccc3)cn2)CC1` belongs 99 to 101 °C.
`O=C(OCC1OC(n2ccc(-n3cncn3)nc2=O)C(OC(=O)c2ccccc2)C1OC(=O)c1ccccc1)c1ccccc1` (stereo unspecified) gave a melting point of 83 to 84 °C.
The figure for `CC(C)(CNC(=O)c1cc2cccc(NS(=O)(=O)c3cccs3)c2[nH]1)SCc1ccccc1` is 170 to 171 °C.
Regarding `COc1ccc(CS[C@H]2C[C@@H](C(N)=O)N(C)C2)cc1`, the melting point fell in the range of 113 to 114 °C.
The figure for `Cc1cccc2c1Sc1c(C)cccc1N2` is 140 to 141 °C.
To `CCOC(=O)NCC(=O)c1ccc(OCC(=O)OC)cc1` belongs 128 to 129 °C.
The figure for `COCOc1ccc(CCC(=O)c2c(OC)cc(OC)c(CCC(C)C)c2O)cc1OC` is 69 to 70 °C; for `Nc1nc(-c2ccco2)c(C(=O)C2CCC(=O)CC2)s1` it is 232 to 235 °C; for `CC(C)c1c(Sc2ccc(O)cc2)n(C)c2ccccc12` it is 89 to 90 °C.
`CCCCOCCOc1ccc(-c2ccc3c(c2)C=C(C(=O)O)CCN3CCCOC)cc1` came in with a melting point of 99 to 101 °C.
To `CC(C)n1nnnc1CCCn1ccc2cc(NC(=O)c3nc4ccc(Cl)cc4n3Cc3ccccc3)ccc21` belongs 190 to 191 °C; to `O=C(O)Cc1ccc(OCCNC(=O)C2Cc3ccccc3N2S(=O)(=O)c2ccc(-c3cccc(C(F)(F)F)c3)cc2)cc1` (stereo unspecified), 92 °C.
The figure for `COc1ccc(-c2nc(N)sc2CCN2CC=C(c3ccccc3)CC2)cc1` is 163 °C; for `Cc1c2n(c3ccccc13)C(=O)C(C(O)c1ncc[nH]1)CC2` (stereo unspecified) it is 199 to 200 °C.
To `O=C(O)c1nc(CCCc2ccccc2)c[nH]1` belongs 148 to 150 °C; to `O=C1CCc2ccc(OCCCl)cc21`, 76 to 80 °C.
The compound `CCc1nc(/C=C/c2cn(-c3ccccc3)nc2OCc2ccc(OCc3nc(/C=C/C(=O)O)oc3C)c(OC)c2)cs1` displayed a melting point of 125 to 126 °C.
The figure for `CN(C(=O)OC(C)(C)C)C(S)=NC(=O)OC(C)(C)C` is 118 °C; for `CC1(C)CCc2cc(O)c(C=O)cc21` it is 40 to 40.5 °C; for `CC(C)(NC(=O)Oc1ccc([N+](=O)[O-])cc1)C(F)(F)F` it is 77 to 80 °C.
To `O=c1[nH]nc2ccc(-c3ccc(Cl)c(Cl)c3)nn12` belongs 336 to 338 °C; to `CCCC1=C(C(=O)OCC)C(c2sccc2C)c2c[nH]nc2N1` (stereo unspecified), 125 °C.
For the compound `COC(=O)c1cccc(Cn2c(=O)c(=O)[nH]c3cc([N+](=O)[O-])ccc32)c1`, the melting point was 265 to 267 °C.
To `O=C(CCCN1CCCCC1)c1ccc2c(c1)Cc1cc(C(=O)CCCN3CCCCC3)ccc1-2` belongs 157 to 159 °C; to `CC(=O)Nc1ccc2c(c1)N1CCN=C1S2`, 268 °C.
To `O=C(Nc1ccccc1)OC(C1CC1)C1CC1` belongs 92 to 94 °C; to `O=C1NC(C(=O)NCCO[N+](=O)[O-])C(c2cccnc2)S1` (stereo unspecified), 139 to 140 °C; to `COc1ccccc1SCCCCCCCC(=O)O`, 62 to 63 °C.
